The source of these data is patent US20260224547A1, “COMPOSITIONS COMPRISING ANATABINE AND USES THEREOF” (Philip Morris Products S.A., priority 2021, published 2026).

The subject of data set [1] is NRF2. Kind of data set: NRF2 luciferase assay (NRF2/ARE reporter cell line). It counts as cell-based, human. The text has this:
A HEK-293 NRF2/ARE luciferase reporter cell line was acquired from Signosis (USA). According to Signosis, this NRF2 luciferase reporter stable cell line had been stably transfected with pTA-ARE-luciferase reporter vector, which contains 4 repeats of antioxidant response binding sites, a minimal promoter upstream of the firefly luciferase coding region, along with a hygromycin expression vector. Following selection, the hygromycin resistant clones were subsequently screened for TBHQ-induced luciferase activity. The clone with the highest fold induction was selected and expanded to produce this stable cell line.
4, 8 or 24 hours after stimulation of the NRF2 reporter cells luminescence was measured using a FLUOstar Omega plate reader.

The test system of data set [2] is NRF2 reporter cells. Kind of data set: Cell viability measured with ATP assay alongside NRF2 translocation (FIG. 4 to 7). The source says:
FIGS. 5A to 5C: bar and line graphs showing NRF2 translocation presented as log 2 fold change compared to vehicle control (bars) and cell viability measured with ATP assay and presented as a percentage of the vehicle control (line) for anatabine (FIG. 5A), dimethyl fumarate (AlfaAesar) (FIG. 5B), and nornicotine (FIG. 5C).
FIGS. 6A to 6C: bar graphs showing NRF2 translocation presented as log 2 fold change compared to vehicle control (bars) and cell viability measured with ATP assay and presented as a percentage of the vehicle control (line) for anatabine (FIG. 6A), dimethyl fumarate (Sigma) (FIG. 6B), and sulforaphane (FIG. 6C).
FIGS. 7A and […]: bar graphs showing NRF2 translocation presented as log 2 fold change compared to vehicle control (bars) and cell viability measured with ATP assay and presented as a percentage of the vehicle control (line) for cotinine (FIG. 7A) and nicotine (FIG. 7B).

As for `C1=CCC(c2cccnc2)NC1` (racemic) [anatabine, 1,2,3,6-Tetrahydro-2,3′-bipyridine], the “maximum log 2-fold change of NRF2 activation” value in data set [1] (at 12.5 μM for sulforaphane, 125 μM and 250 μM for DMF, 1000 μM for anatabine) is reported as “over 7”. The “NRF2 luciferase reporter signal” value in data set [1] (concentration series) was “concentration-dependent rise”. Also, the “cell viability, percentage of the vehicle control” value in data set [2] (250 μM) and in data set [2] (500 μM) was “above 85%” throughout. Further, the “cell viability at higher concentrations” value in data set [2] (higher concentrations of the tested range) is “high cell viability”.
